Experimental data published in BindingDB's records for doi:10.1021/jm049651m (Uppsala University, 2004).
Bridge positions count the residues as written; N and C are the ends. Square brackets hold non-standard residues; d marks the D form. Peptide text beside a SMILES is read from it. hCys = N[C@@H](CCS)C(=O)O

Target: Type-2 angiotensin II receptor (Sus scrofa)
Assay: Displacement of [125I]-Ang II from pig uterus myometrium angiotensin II type 2 (AT2) receptor

Ki: 2.1 nM
Compound: NC(N)=NCCC[C@H](NC(=O)[C@@H](N)CC(=O)O)C(=O)N[C@H]1CCSSCC[C@@H](C(=O)N[C@@H](Cc2c[nH]cn2)C(=O)N2CCC[C@H]2C(=O)N[C@@H](Cc2ccccc2)C(=O)O)NC(=O)[C@H](Cc2ccc(O)cc2)NC1=O [c[Hcy3,5]Ang II] (H-DR[hCys]Y[hCys]HPF-OH; disulfide 3-5)
